Results reported in patent US20260200897A1, “4-((5-(3-(4-(PYRIDIN-2-YL)CYCLOPENTYL)-1H-PYRAZOL-3-YL)AMINO)-BENZENESULFONAMIDE DERIVATIVES AND SIMILAR COMPOUNDS AS CDK INHIBITORS FOR THE TREATMENT OF CANCER” (BeOne Medicines I GmbH, priority 2023, published 2026).

Legend:
CDK1/Cyclin B1 = CDK1/Cyclin B1 (Homo sapiens, UniProt P06493); experiment: CDK1/Cyclin B1 TR-FRET biochemical assay, 1 mM ATP; conditions: 0.15 μM Rb (Ser780)-biotin substrate, 90 min reaction, Table 2
CDK2/Cyclin E1 = CDK2/Cyclin E1 (Homo sapiens, UniProt P24941); experiment: CDK2/Cyclin E1 TR-FRET biochemical assay, 1 mM ATP; conditions: 0.15 μM Rb (Ser780)-biotin substrate, 90 min reaction, Table 2

Chain of CDK1/Cyclin B1 (P06493 whole entry): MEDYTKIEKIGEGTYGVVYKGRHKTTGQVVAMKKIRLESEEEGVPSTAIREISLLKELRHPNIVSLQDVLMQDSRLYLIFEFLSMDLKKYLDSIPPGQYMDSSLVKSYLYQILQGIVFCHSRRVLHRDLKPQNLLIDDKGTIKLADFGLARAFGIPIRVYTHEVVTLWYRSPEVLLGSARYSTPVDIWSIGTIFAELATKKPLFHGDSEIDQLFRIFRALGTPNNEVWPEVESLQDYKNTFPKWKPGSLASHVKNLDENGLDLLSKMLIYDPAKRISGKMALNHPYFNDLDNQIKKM
Chain of CDK1/Cyclin B1 (P14635 whole entry partner): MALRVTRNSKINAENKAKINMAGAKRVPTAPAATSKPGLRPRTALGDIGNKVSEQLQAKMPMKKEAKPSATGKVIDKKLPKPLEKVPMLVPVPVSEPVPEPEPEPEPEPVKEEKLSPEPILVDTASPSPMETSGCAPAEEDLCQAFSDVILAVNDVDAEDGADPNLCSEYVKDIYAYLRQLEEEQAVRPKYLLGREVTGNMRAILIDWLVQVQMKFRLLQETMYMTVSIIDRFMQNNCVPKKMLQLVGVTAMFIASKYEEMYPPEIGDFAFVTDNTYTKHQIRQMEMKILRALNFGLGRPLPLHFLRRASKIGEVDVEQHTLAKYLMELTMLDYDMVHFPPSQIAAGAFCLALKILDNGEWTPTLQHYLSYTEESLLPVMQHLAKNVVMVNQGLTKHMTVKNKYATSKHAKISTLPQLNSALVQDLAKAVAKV

IC50 (CDK1/Cyclin B1) [nM] | IC50 (CDK2/Cyclin E1) [nM] | Compound
685 | 4.6 | CC(C)(C)c1ccnc(C2CCC(c3cc(Nc4ccc5c(c4F)CS(=O)(=O)N5)n[nH]3)C2)c1 (stereo not drawn) [Example 155, 5-((5-(3-(4-(tert-butyl)pyridin-2-yl)cyclopentyl)-1H-pyrazol-3-yl)amino)-4-fluoro-1,3-dihydrobenzo[c]isothiazole 2,2-dioxide]
> 10000 | 2020 | CC(C)(C)c1ccc(C2CCC(c3cc(Nc4ccc5c(c4F)CS(=O)(=O)N5)n[nH]3)C2)nc1 (stereo not drawn) [Example 156, 5-((5-(3-(5-(tert-butyl)pyridin-2-yl)cyclopentyl)-1H-pyrazol-3-yl)amino)-4-fluoro-1,3-dihydrobenzo[c]isothiazole 2,2-dioxide]
> 10000 | > 10000 | CC(C)(C)c1cccc(C2=CC(c3cc(Nc4ccc5c(c4F)CS(=O)(=O)N5)n[nH]3)CC2)n1 (stereo not drawn) [Example 157, 5-((5-(3-(6-(tert-butyl)pyridin-2-yl)cyclopent-2-en-1-yl)-1H-pyrazol-3-yl)amino)-4-fluoro-1,3-dihydrobenzo[c]isothiazole 2,2-dioxide]
3930 | 84 | CC(C)(C)c1cccc(C2CCC(c3cc(Nc4ccc5c(c4F)CS(=O)(=O)N5)n[nH]3)C2)n1 (stereo not drawn) [Example 158, 5-((5-(3-(6-(tert-butyl)pyridin-2-yl)cyclopentyl)-1H-pyrazol-3-yl)amino)-4-fluoro-1,3-dihydrobenzo[c]isothiazole 2,2-dioxide]
> 10000 | 1040 | Cc1cccc(C2CCC(c3cc(Nc4ccc5c(c4F)CS(=O)(=O)N5)n[nH]3)C2)n1 (stereo not drawn) [Example 159, 4-fluoro-5-((5-(3-(6-methylpyridin-2-yl)cyclopentyl)-1H-pyrazol-3-yl)amino)-1,3-dihydrobenzo[c]isothiazole 2,2-dioxide]
> 10000 | 868 | COc1cccc(C2CCC(c3cc(Nc4ccc5c(c4F)CS(=O)(=O)N5)n[nH]3)C2)n1 (stereo not drawn) [Example 160, 4-fluoro-5-((5-(3-(6-methoxypyridin-2-yl)cyclopentyl)-1H-pyrazol-3-yl)amino)-1,3-dihydrobenzo[c]isothiazole 2,2-dioxide]
> 10000 | 1060 | CC(C)(C)c1cc(C2CCC(c3cc(Nc4ccc5c(c4F)CS(=O)(=O)N5)n[nH]3)C2)ccn1 (stereo not drawn) [Example 161, 5-((5-(3-(2-(tert-butyl)pyridin-4-yl)cyclopentyl)-1H-pyrazol-3-yl)amino)-4-fluoro-1,3-dihydrobenzo[c]isothiazole 2,2-dioxide]
> 10000 | 308 | CC(C)(C)c1cncc(C2CCC(c3cc(Nc4ccc5c(c4F)CS(=O)(=O)N5)n[nH]3)C2)c1 (stereo not drawn) [Example 162, 5-((5-(3-(5-(tert-butyl)pyridin-3-yl)cyclopentyl)-1H-pyrazol-3-yl)amino)-4-fluoro-1,3-dihydrobenzo[c]isothiazole 2,2-dioxide]
2020 | 16 | CC(C)(C)c1cnnc(C2CCC(c3cc(Nc4ccc5c(c4F)CS(=O)(=O)N5)n[nH]3)C2)c1 (stereo not drawn) [Example 163, 5-((5-(3-(5-(tert-butyl)pyridazin-3-yl)cyclopentyl)-1H-pyrazol-3-yl)amino)-4-fluoro-1,3-dihydrobenzo[c]isothiazole 2,2-dioxide]
> 10000 | 285 | Cc1cc(C(C)(C)C)cc(C2CCC(c3cc(Nc4ccc5c(c4F)CS(=O)(=O)N5)n[nH]3)C2)n1 (stereo not drawn) [Example 164, 5-((5-(3-(4-(tert-butyl)-6-methylpyridin-2-yl)cyclopentyl)-1H-pyrazol-3-yl)amino)-4-fluoro-1,3-dihydrobenzo[c]isothiazole 2,2-dioxide]
126 | 1.7 | CC(C)c1ccnc(C2CCC(c3cc(Nc4ccc5c(c4F)CS(=O)(=O)N5)n[nH]3)C2)n1 (stereo not drawn) [Example 165, 4-fluoro-5-((5-(3-(4-isopropylpyrimidin-2-yl)cyclopentyl)-1H-pyrazol-3-yl)amino)-1,3-dihydrobenzo[c]isothiazole 2,2-dioxide]
202 | 0.9 | CC(C)(C)c1cnc(C2CCC(c3cc(Nc4ccc5c(c4F)CCS(=O)(=O)N5)n[nH]3)C2)o1 (stereo not drawn) [Example 166, 6-((5-(3-(5-(tert-butyl)oxazol-2-yl)cyclopentyl)-1H-pyrazol-3-yl)amino)-5-fluoro-3,4-dihydro-1H-benzo[c][1,2]thiazine 2,2-dioxide]
1100 | 8 | CC(C)c1cnc(C2CCC(c3cc(Nc4ccc5c(c4F)CCS(=O)(=O)N5)n[nH]3)C2)o1 (stereo not drawn) [Example 167, 5-fluoro-6-((5-(3-(5-isopropyloxazol-2-yl)cyclopentyl)-1H-pyrazol-3-yl)amino)-3,4-dihydro-1H-benzo[c][1,2]thiazine 2,2-dioxide]
2350 | 15 | CC(C)c1cnc(C2CCC(c3cc(Nc4ccc5c(c4)CN=S5(C)=O)n[nH]3)C2)o1 (stereo not drawn) [Example 168, 5-((5-(3-(5-isopropyloxazol-2-yl)cyclopentyl)-1H-pyrazol-3-yl)amino)-1-methyl-3H-1λ^4-benzo[d]isothiazole 1-oxide]
1440 | 5.4 | CC(C)c1cnc(C2CCC(c3cc(Nc4ccc5c(c4F)CN=S5(C)=O)n[nH]3)C2)o1 (stereo not drawn) [Example 170]
348 | 2 | CC(C)(C)c1cnc(C2CCC(c3cc(Nc4ccc5c(c4F)CN=S5(C)=O)n[nH]3)C2)o1 (stereo not drawn) [Example 171, 5-((5-(3-(5-(tert-butyl)oxazol-2-yl)cyclopentyl)-1H-pyrazol-3-yl)amino)-4-fluoro-1-methyl-3H-1λ^4-benzo[d]isothiazole 1-oxide]
198 | 2.8 | CC(C)(C)c1cnc(C2CCC(c3cc(Nc4ccc5c(c4F)CS(=O)(=O)C5)n[nH]3)C2)o1 (stereo not drawn) [Example 173, 5-((5-(3-(5-(tert-butyl)oxazol-2-yl)cyclopentyl)-1H-pyrazol-3-yl)amino)-4-fluoro-1,3-dihydrobenzo[c]thiophene 2,2-dioxide]
> 10000 | 439 | Cc1cc(C(C)(C)C)cc(C2CCC(c3cc(Nc4ccc5c(c4F)CS(=O)(=O)C5)n[nH]3)C2)n1 (stereo not drawn) [Example 175, 5-((5-(3-(4-(tert-butyl)-6-methylpyridin-2-yl)cyclopentyl)-1H-pyrazol-3-yl)amino)-4-fluoro-1,3-dihydrobenzo[c]thiophene 2,2-dioxide]
> 10000 | 438 | CC(C)(C)c1ccc(C2CCC(c3cc(Nc4ccc5c(c4F)CS(=O)(=O)C5)n[nH]3)C2)o1 (stereo not drawn) [Example 176, 5-((5-(3-(5-(tert-butyl)furan-2-yl)cyclopentyl)-1H-pyrazol-3-yl)amino)-4-fluoro-1,3-dihydrobenzo[c]thiophene 2,2-dioxide]
336 | 3 | Cc1nc(C2CCC(c3cc(Nc4ccc5c(c4F)CS(=O)(=O)C5)n[nH]3)C2)oc1C(C)(C)C (stereo not drawn) [Example 177, 5-((5-(3-(5-(tert-butyl)-4-methyloxazol-2-yl)cyclopentyl)-1H-pyrazol-3-yl)amino)-4-fluoro-1,3-dihydrobenzo[c]thiophene 2,2-dioxide]
1520 | 7 | CC(C)c1ccnc(C2CCC(c3cc(Nc4ccc5c(c4F)CS(=O)(=O)C5)n[nH]3)C2)c1 (stereo not drawn) [Example 178, 4-fluoro-5-((5-(3-(4-isopropylpyridin-2-yl)cyclopentyl)-1H-pyrazol-3-yl)amino)-1,3-dihydrobenzo[c]thiophene 2,2-dioxide]
